Laboratory results as given in ChEMBL document CHEMBL1146815, “Novel dual inhibitors of calpain and lipid peroxidation” (Bioorg Med Chem Lett, 2004).

Columns and labels:
[1] = molecular target: T1, Calpain-1 catalytic subunit (Homo sapiens, UniProt P07384); test: Inhibitory activity against on human calpain 1
T1 sequence (P07384 whole entry): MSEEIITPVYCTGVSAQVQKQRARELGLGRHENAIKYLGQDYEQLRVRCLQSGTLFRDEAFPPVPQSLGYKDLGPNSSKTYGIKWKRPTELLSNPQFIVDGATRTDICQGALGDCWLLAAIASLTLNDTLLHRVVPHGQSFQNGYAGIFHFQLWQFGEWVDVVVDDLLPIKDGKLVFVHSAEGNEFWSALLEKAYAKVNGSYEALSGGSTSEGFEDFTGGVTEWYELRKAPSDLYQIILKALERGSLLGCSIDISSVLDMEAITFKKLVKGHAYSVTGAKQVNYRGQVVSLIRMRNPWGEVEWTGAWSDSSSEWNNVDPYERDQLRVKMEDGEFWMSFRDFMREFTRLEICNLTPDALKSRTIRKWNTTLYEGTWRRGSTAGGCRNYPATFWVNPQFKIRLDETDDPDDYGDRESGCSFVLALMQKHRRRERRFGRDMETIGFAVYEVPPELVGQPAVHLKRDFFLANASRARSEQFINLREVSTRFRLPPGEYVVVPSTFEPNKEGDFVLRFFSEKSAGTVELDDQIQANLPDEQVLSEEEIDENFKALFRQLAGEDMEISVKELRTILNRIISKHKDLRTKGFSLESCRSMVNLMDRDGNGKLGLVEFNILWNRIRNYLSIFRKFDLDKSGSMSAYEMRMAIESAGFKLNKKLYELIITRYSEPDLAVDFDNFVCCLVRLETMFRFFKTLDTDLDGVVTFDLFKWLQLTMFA

Rattus norvegicus = organism: Rattus norvegicus; test: Ability to inhibit [Fe2+] induced lipid peroxidation (LPO) in rat brain microsomes; assay type: functional
[2] = molecular target: T1, Calpain-1 catalytic subunit; test: Inhibitory activity against on human calpain 1; Not active
[3] = molecular target: T1, Calpain-1 catalytic subunit; test: Inhibitory activity against on calpain in C6 glial cells; Not active; assay type: functional, cell-based, Rattus norvegicus
C6 [4] = test: Protection against C6 glial cell death induced by maitotoxin at 100 uM concentration; assay type: functional; conditions: Rattus norvegicus
C6 [5] = test: Protection against C6 glial cell death induced by maitotoxin; assay type: functional, cell-based; conditions: Rattus norvegicus

IC50 [1]	SMILES	IC50 (Rattus norvegicus)	IC50 [2]	IC50 [3]	inhibition at 100 µM (C6 [4])	IC50 (C6 [5])
82 nM	CC(C)C[C@H](NC(=O)c1cccc2c1Nc1ccccc1S2)C(=O)N[C@H]1CCOC1O (some centres not stated)	3600 nM	–	–	–	–
–	Cc1cc(C(C)(C)C)c(O)c(C(C)(C)C)c1 [BUTYLATED HYDROXYTOLUENE]	3250 nM	Not Active	Not Active	21%	–
–	CC(=O)OC1OCC[C@@H]1NC(=O)[C@H](CC(C)C)NC(=O)c1ccc2c(c1)Nc1ccccc1S2 (some centres not stated)	–	–	–	–	15500 nM
147 nM	Cc1c(C)c2c(c(C)c1O)CCC(C)(C(=O)N[C@@H](CC(C)C)C(=O)N[C@H]1CCOC1O)O2 (some centres not stated)	1700 nM	–	–	–	–

SMILES	IC50 [1]	IC50 (Rattus norvegicus)	IC50 [2]	IC50 [3]	inhibition at 100 µM (C6 [4])	IC50 (C6 [5])
CC(C)C[C@H](NC(=O)c1ccc2c(c1)Nc1ccccc1S2)C(=O)N[C@H]1CCOC1O (some centres not stated)	22.5 nM	70 nM	–	–	–	38500 nM
